The source of these data is article PMC13053910, “Covalent Protein Inhibitors via Tyrosine and Tryptophan Conjugation with Cyclic Imine Mannich Electrophiles” (Angewandte Chemie (International Ed. in English), 2026).

Non-standard residues stand in square brackets, D forms with d. Residues, ends and D or L forms follow the SMILES beside them. *: point of attachment. Benzoyl(4-OPh) = O=C(c1ccc(Oc2ccccc2)cc1)*; Lys(Et2) = CCN(CC)CCCC[C@H](N)C(=O)O; Gly(cPent) = N[C@H](C(=O)O)C1CCCC1

Data set [1] can be described thus: Reaction of cyclic imine Mannich or sulfur fluoride electrophiles with Ac-Tyr-NHMe (HPLC, LC/MS). The data set is classed as physicochemical. To be noted: PBS pH 7, 37 °C; for reactivity (t1/2): electrophile 5 mM, N‐acetyl‐l‐tyrosine methyl amide 100 mM; for second‐order rate constant k2 with N‐Ac‐Tyr‐NHMe: pseudo‐first‐order conditions. The procedure:
To identify an appropriate warhead, we synthesized or purchased a collection of cyclic imines and incubated them with N‐acetyl‐L‐tyrosine methylamide (Ac‐Tyr‐NHMe) in PBS pH 7 at 37 °C (Table 1). The reactivity was quantified by UV integration on HPLC with LC/MS confirmation of product identity (Figure S1). […] The hydrolysis kinetics of imine 2 were characterized at pD 6 and 7.5 by NMR (Figure S3). […] The Mannich reaction mechanism involves a charged iminium intermediate, and the reaction is frequently catalyzed by Bronsted acids.^[ [36], [37] ^]
Figure 2 Second‐order rate constants for select cyclic imines and a sulfonyl fluoride with aromatic nucleophiles. Reactions were conducted under pseudo‐first‐order conditions with an excess of one reactant, as indicated. The reduction in the concentration of the limiting reactant was measured at various time points by HPLC analysis.
Figure S2: Second order rate constant determination. Reaction of (A) imine 1 (5 mM) with N-Ac-Tyr-NHMe (100 mM) at 37 °C or (B) at R.T. (C) imine 2 (5 mM) with N-Ac-Tyr-NHMe (100 mM) at 37 °C (D) imine 1 (5 mM) with indole-3-butyrate (100 mM) at 37 °C (E) imine 1 (10 mM) with 1 mM 1H-pyrrole-1-propionate (F) iminium 5 (5 mM) with N-Ac-Tyr-NHMe (100 mM) at 37 °C (G) imine 4 (5 mM) with N-Ac-Tyr-NHMe (100 mM) at 37 °C. (H) imine 11 (5 mM) with N-Ac-Tyr-NHMe (100 mM) at 37 °C. (I) imine 13 (5 mM) with N-Ac-Tyr-NHMe (100 mM) at 37 °C.
5.1 General procedure for determination of second order rate constants N-acetyl-l-tyrosine methyl amide (Ac-Tyr-NHMe) (100 mM) was incubated with 5 mM imine 1 in PBS (pH 7) at 37 °C or R.T..

The nature of data set [2]: Reaction of imine 1 with indole-3-butyrate (tryptophan mimic), rate constant. The data set is classed as physicochemical. As to conditions: imine 5 mM, indole-3-butyrate 100 mM, 37 °C. The method, then:
(§1) Figure 2 Second‐order rate constants for select cyclic imines and a sulfonyl fluoride with aromatic nucleophiles. Reactions were conducted under pseudo‐first‐order conditions with an excess of one reactant, as indicated. The reduction in the concentration of the limiting reactant was measured at various time points by HPLC analysis. Rates of imine 1 with N‐Ac‐Tyr‐NMe, indole‐3‐butyric acid, and 1H‐pyrrole‐1‐propionic acid and compounds 4, 11, and 13 with N‐Ac‐Tyr‐NMe were measured. […]
(§2) To assess the selectivity for tyrosine side chains, we tested the reactivity of 1 with additional compounds, including β‐mercaptoethanol, imidazole, isopropanol, n‐butylamine, propionic acid, 3‐methyl indole, and N‐ethyl pyrrole. […] While partially stable under LC/MS conditions, the N,S‐thioaminal product is readily reversible.^[ [41] ^] […] We determined a second‐order rate constant of 5.9 × 10^−2 M^−1 s^−1 for the reaction of 1 with 1H‐pyrrole‐1‐propionate (Figures 2 and S2). […]

For a further data set, the target named is T1, CBX8 chromodomain (ChD) (Homo sapiens, UniProt Q9HC52).
T1 construct: CBX chromodomain constructs (addgene plasmid #25158 (CBX2), and #62514 (CBX8, provided by Cheryl Arrowsmith)); 6His; host or cells: E. coli (BL21 CodonPlus RIL or Rosetta 2)
T1 sequence (Q9HC52 11-69 limits assumed): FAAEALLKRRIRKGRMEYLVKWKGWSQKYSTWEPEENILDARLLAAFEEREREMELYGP
The data set can be described thus: Non-directed labeling of CBX8 ChD with cyclic imine 1 (mass spectrometry). To be noted: 1 (50 µM), CBX8 ChD (50 µM), 10 h. The data set is classed as binding. The text has this: Our interest in this chemistry was to improve inhibitors of the chromodomains (ChD) of the CBX family of epigenetic proteins, which have proven challenging to inhibit selectively or with drug‐like small molecules.^[ [47] ^] The CBX ChDs bind a trimethylated lysine (Kme3) side chain on histone tails via cation‐pi interactions with the aromatic cage in the ChD. Our initial hypothesis was that the aromatic cage tryptophan residues would show increased reactivity to Mannich electrophiles, as they function naturally to donate electron density to the electron‐poor methyl groups of Kme3. To test this, 1 (50 µM) was incubated for 10 h with the CBX8 chromodomain (ChD) (50 µM), and labeling was assessed by mass spectrometry (Figure S11).
Figure S11. […] Cyclic imine 1 ([…]) was incubated with 50 µM CBX8 ChD in PBS (pH=7, 0.02% Tween20) buffer at R.T. for 16 hours overnight. Labeled protein was precipitated using cold MeOH:CHCl3 at the ratio of MeOH:CHCl3:Protein = 3:0.5:1, followed with two methanol washes. Protein pellet was air dried after the last wash resuspensed in water containing 0.1% formic acid and 100 mM ammonium acetate. Protein labeling was characterized by LC/MS (Unmodified CBX8 control is indicated in red, and CBX8 labeled with cyclic imine is indicated in green).

Data set [3] is described as follows: Reaction of imine 1 with 1H-pyrrole-1-propionate (pyrrolated lysine mimic), rate constant. As to conditions: imine 10 mM, 1 mM 1H-pyrrole-1-propionate. The data set is classed as physicochemical. The procedure: as §1, §2
Data set [4] is described as follows: Stability of warheads and inhibitors (solid, PBS, hydrolysis). The data set is classed as physicochemical. As to conditions: solid, room temperature. The procedure:
To be suitable for chemical probe and therapeutic applications, the warhead should show good stability. In general, we found the iminolactam warheads to be quite stable. Compound 1 was stable as a solid at room temperature for over 3 months. […] After 24‐h in aqueous buffer, compounds were treated with sodium cyanoborohydride. […] The synthetic strategy of in situ formation of imines by periodate treatment was pursued to avoid concerns of warhead reactivity with the ligand itself to either the peptide backbone or the phenoxyphenyl aryl group. This appears to have been unnecessary, at least for the iminolactam warhead. […] The more reactive ester imine may be forming semi‐stable cyclized products with the amide backbone, which have been observed previously with peptide aldehydes.^[ [51], [52] ^] Due to these issues, we selected compound P1b for further characterization.

The next data set concerns the target CBX8 ChD. On the set-up: method as in PMID 31755685, PMID 29309209. To be noted: prior work ref 47, 48; cited from earlier work.
In data set [5] the test system is HOXA9 gene expression in THP1 cells. The data set can be described thus: qRT-PCR analysis of HOXA9 gene expression in THP1 cells. The data set is classed as cell-based, Human. To be noted: 48 h. The procedure:
Figure 7 Cellular activity of covalent, cyclic imine inhibitors to CBX8. a) qRT‐PCR analysis of HOXA9 gene expression in THP1 cells after 48 h of compound treatment at the indicated dose. N = 3. Error bars represent SD. Statistical significance was calculated using Student's t‐test. ** = p < 0.01, **** = p < 0.0001, b) qRT‐PCR analysis of HOXA9 gene expression in THP1 cells treated with increasing doses of compound for 48 h. N = 3. Error bars represent SD.
Figure S24. Cellular activity of covalent, cyclic imine inhibitors to CBX8. qRT-PCR analysis of HOXA9 gene expression in THP1 cells after 48 h of compound treatment at the indicated dose. N = 3. Error bars represent s.d. Statistical significance determined by Student’s T test. * = p <0.05, ** = p < 0.01, *** = p < 0.001, **** = p < 0.0001.
2.4 Cell Culture Cell line, Media and Culture Conditions HEK293T cells were cultured in Dubecco’s Modified Essential Media (DMEM), 10% fetal bovine serum (FBS, JR Scientific), 1% glutagro (Corning), 1% penicillin/streptomycin (Corning), 1% sodium pyruvate (Corning). Human THP1 cells were cultured in RPMI (Gibco), 10% FBS (J R Scientific), 1% Sodium pyruvate (Invitrogen), 1% Pen/Strep (Invitrogen), 1% Glutamax (Thermo Scientific), 0.1% 2-mercaptoethanol.
Cells were harvested after 48 h for RNA extraction. […] SYBR Green Mastermix (Thermo Scientific) was used for quantitative PCR. […]

The conditions of data set [6]: pH 7 and 37 °C ref 39; cited from earlier work.

Consider `O=C1C=NC2CCCCC2N1` (centres unmarked) [compound 1], for which, in data set [1], the “reactivity (t1/2)” value turned out to be 8 ± 0.3 h and the “second‐order rate constant k2 with N‐Ac‐Tyr‐NHMe” value is 0.00024 M⁻¹ s⁻¹. For the same compound, in data set [2], the “second‐order rate constant k2 with indole‐3‐butyrate” value came out at 0.00011 M⁻¹ s⁻¹. The “labeling of CBX8 ChD by imine alone” value on CBX8 chromodomain (ChD) was “distribution of unlabeled, singly, doubly, and triply labeled protein indicative of random labeling”. Besides, the “second‐order rate constant k2 with 1H‐pyrrole‐1‐propionate” value in data set [3] was 0.059 M⁻¹ s⁻¹. Further, the “stable as a solid at room temperature” value in data set [4] is recorded as “over 3 months”.

On to `CC[C@H](C)[C@H](NC(=O)[C@@H](NC(=O)c1ccc(Oc2ccccc2)cc1)C1CCCC1)C(=O)N[C@@H](CCCCN(CC)CC)C(=O)N[C@@H](CO)C(N)=O` [SW2_110A, reference compound] ({Benzoyl(4-OPh)}-[Gly(cPent)]I[Lys(Et2)]S-NH2), for which the Kd on CBX8 ChD is 800 nM. The IC50 in data set [5] was over 22000 nM.

On to `NCCc1ccc(S(=O)(=O)F)cc1` [compound 13, 4‐(2‐aminoethyl)‐benzenesulfonyl fluoride, reference compound], for which, in data set [1], the “reactivity (t1/2)” value was 0.28 ± 0.02 h and the “second‐order rate constant k2 with N‐Ac‐Tyr‐NHMe” value stood at 0.0069 M⁻¹ s⁻¹. For the same compound, in data set [6], the “hydrolysis half‐life” value is listed as 6 h.
